In patent US20090275583A1, “ANTIVIRAL COMPOUNDS AND USE THEREOF” (Myriad Genetics, Incorporated, priority 2006, published 2009):
pEC50, pIC50: −log10 of the molar value.

Experiments:
HIV-1NL4-3 = experiment: P4-MAGI assay; type: cell-based; conditions: Human immunodeficiency virus 1, 24 h, P4 cells, 24 hour incubation, β-galactosidase expression; read-out: P4-MAGI IC50
Method in brief: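 HeLa-derived CD4+ P4 cells carrying an LTR-driven lacZ were infected with HIV-1NL4-3 at MOI 1 with DEAE-Dextran, then compound added in increasing concentrations right after virus; infection reported as Tat-induced β-galactosidase. TC50 measured by WST-1 in mock-infected cells.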

[1] = system: HIV-1 laboratory strain, NL4-3; experiment: MT-4 cytoprotection assay; type: cell-based; conditions: Human immunodeficiency virus 1, NL43, MT4, 96 h; MT-4 cells, four days incubation, WST-1 readout; read-out: MT4 EC50
Method in brief: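 MT-4 cells mock- or batch-infected with NL4-3 (MOI 0.0005) for 2 h, washed, then cultured 4 days with increasing compound concentrations. Viability read by WST-1 tetrazolium reduction: cytoprotection in infected cells, toxicity in mock-infected cells.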

| SMILES | pIC50 (HIV-1NL4-3) | pEC50 [1] |
| --- | --- | --- |
| C=C(C)[C@@H]1CC[C@]2(C(=O)NCCc3cccc(C(=O)NCc4ccc(C(=O)OC)o4)c3)CC[C@]3(C)C(CCC4[C@@]5(C)CC[C@H](O)C(C)(C)C5CC[C@]43C)C12 (stereo partly shown) [Example 155] | 7.59 | 7.77 |
| C=C(C)[C@@H]1CC[C@]2(C(=O)NCCc3cccc(C(=O)NCc4ccc(C(=O)O)o4)c3)CC[C@]3(C)C(CCC4[C@@]5(C)CC[C@H](O)C(C)(C)C5CC[C@]43C)C12 (stereo partly shown) [Example 156] | 7.29 | 8.10 |
| C=C(C)[C@@H]1CC[C@]2(C(=O)NCCc3cccc(C(=O)NCc4cnc(C)cn4)c3)CC[C@]3(C)C(CCC4[C@@]5(C)CC[C@H](O)C(C)(C)C5CC[C@]43C)C12 (stereo partly shown) [Example 157] | 7.49 | 6.95 |
| C=C(C)[C@@H]1CC[C@]2(C(=O)NCCc3cccc(C(=O)N[C@@H](C)c4ccccn4)c3)CC[C@]3(C)C(CCC4[C@@]5(C)CC[C@H](O)C(C)(C)C5CC[C@]43C)C12 (stereo partly shown) [Example 158] | 6.60 | < 5.00 |
| C=C(C)[C@@H]1CC[C@]2(C(=O)NCCc3cccc(C(=O)NC(C)(C)c4ccccn4)c3)CC[C@]3(C)C(CCC4[C@@]5(C)CC[C@H](O)C(C)(C)C5CC[C@]43C)C12 (stereo partly shown) [Example 159] | 6.60 | < 5.00 |
| C=C(C)[C@@H]1CC[C@]2(C(=O)NCCc3cccc(C(=O)NCc4ccc(C(=O)N[C@@H](C(=O)O)[C@H](C)O)cc4)c3)CC[C@]3(C)C(CCC4[C@@]5(C)CC[C@H](O)C(C)(C)C5CC[C@]43C)C12 (stereo partly shown) [Example 160] | 7.82 | 7.41 |
| C=C(C)[C@@H]1CC[C@]2(C(=O)NCCc3cccc(C(=O)NCc4ccc(C(=O)N[C@@H](C(=O)OC)[C@H](C)O)cc4)c3)CC[C@]3(C)C(CCC4[C@@]5(C)CC[C@H](O)C(C)(C)C5CC[C@]43C)C12 (stereo partly shown) [Example 161] | 7.82 | 7.82 |
| C=C(C)[C@@H]1CC[C@]2(C(=O)NCCc3cccc(C(=O)NCc4ccc(C(=O)N[C@H](Cc5ccc(O)cc5)C(=O)O)cc4)c3)CC[C@]3(C)C(CCC4[C@@]5(C)CC[C@H](O)C(C)(C)C5CC[C@]43C)C12 (stereo partly shown) [Example 164] | 8.15 | 8.15 |
| C=C(C)[C@@H]1CC[C@]2(C(=O)NCCc3cccc(C(=O)NCc4ccc(C(=O)N[C@H](Cc5ccc(O)cc5)C(=O)OC)cc4)c3)CC[C@]3(C)C(CCC4[C@@]5(C)CC[C@H](O)C(C)(C)C5CC[C@]43C)C12 (stereo partly shown) [Example 165] | 7.89 | 7.70 |
| C=C(C)[C@@H]1CC[C@]2(C(=O)NCCc3cccc(C(=O)NCc4ccc(C(=O)N[C@H](Cc5cc6ccccc6[nH]5)C(=O)O)cc4)c3)CC[C@]3(C)C(CCC4[C@@]5(C)CC[C@H](O)C(C)(C)C5CC[C@]43C)C12 (stereo partly shown) [Example 166] | 7.66 | 7.89 |
| C=C(C)[C@@H]1CC[C@]2(C(=O)NCCc3cccc(C(=O)NCc4ccc(C(=O)N[C@H](Cc5cc6ccccc6[nH]5)C(=O)OC)cc4)c3)CC[C@]3(C)C(CCC4[C@@]5(C)CC[C@H](O)C(C)(C)C5CC[C@]43C)C12 (stereo partly shown) [Example 167] | 7.66 | 7.72 |
| C=C(C)[C@@H]1CC[C@]2(C(=O)NCCc3cccc(C(=O)NCc4ccc(C(=O)N[C@@H](C(=O)O)C(C)C)cc4)c3)CC[C@]3(C)C(CCC4[C@@]5(C)CC[C@H](O)C(C)(C)C5CC[C@]43C)C12 (stereo partly shown) [Example 168] | 7.85 | 8.22 |
| C=C(C)[C@@H]1CC[C@]2(C(=O)NCCc3cccc(C(=O)NCc4ccc(C(=O)N[C@@H](C(=O)OC)C(C)C)cc4)c3)CC[C@]3(C)C(CCC4[C@@]5(C)CC[C@H](O)C(C)(C)C5CC[C@]43C)C12 (stereo partly shown) [Example 169] | 7.70 | 8.05 |
| C=C(C)[C@@H]1CC[C@]2(C(=O)NCCc3cccc(C(=O)NCc4ccc(C(=O)N[C@H](Cc5c[nH]cn5)C(=O)OC)cc4)c3)CC[C@]3(C)C(CCC4[C@@]5(C)CC[C@H](O)C(C)(C)C5CC[C@]43C)C12 (stereo partly shown) [Example 170] | 8.00 | 8.30 |
| C=C(C)[C@@H]1CC[C@]2(C(=O)NCCc3cccc(C(=O)NCc4ccc(C(=O)NCCC5CCCN5C)cc4)c3)CC[C@]3(C)C(CCC4[C@@]5(C)CC[C@H](O)C(C)(C)C5CC[C@]43C)C12 (stereo partly shown) [Example 171] | 7.30 | 7.96 |
| C=C(C)[C@@H]1CC[C@]2(C(=O)NCCc3cccc(C(=O)NCc4ccc(C(=O)NCCN5CCCCC5)cc4)c3)CC[C@]3(C)C(CCC4[C@@]5(C)CC[C@H](O)C(C)(C)C5CC[C@]43C)C12 (stereo partly shown) [Example 172] | 7.03 | 7.85 |
| C=C(C)[C@@H]1CC[C@]2(C(=O)NCCc3cccc(C(=O)NCc4ccc(C(=O)NCCN5CCC(O)CC5)cc4)c3)CC[C@]3(C)C(CCC4[C@@]5(C)CC[C@H](O)C(C)(C)C5CC[C@]43C)C12 (stereo partly shown) [Example 173] | 7.55 | 8.70 |
| C=C(C)[C@@H]1CC[C@]2(C(=O)NCCc3cccc(C(=O)NCc4ccc(C(=O)NCCN5CCOCC5)cn4)c3)CC[C@]3(C)C(CCC4[C@@]5(C)CC[C@H](O)C(C)(C)C5CC[C@]43C)C12 (stereo partly shown) [Example 174] | 8.22 | 8.15 |

| SMILES | pIC50 (HIV-1NL4-3) | pEC50 [1] |
| --- | --- | --- |
| C=C(C)[C@@H]1CC[C@]2(C(=O)NCCc3cccc(C(=O)NCc4ccc(C(=O)N[C@H](CO)C(=O)OC)cc4)c3)CC[C@]3(C)C(CCC4[C@@]5(C)CC[C@H](O)C(C)(C)C5CC[C@]43C)C12 (stereo partly shown) [Example 175] | 7.89 | 8.40 |
| C=C(C)[C@@H]1CC[C@]2(C(=O)NCCc3cccc(C(=O)NCc4ccc(C(=O)N[C@@H](C(=O)O)[C@@H](C)N5CCOCC5)cc4)c3)CC[C@]3(C)C(CCC4[C@@]5(C)CC[C@H](O)C(C)(C)C5CC[C@]43C)C12 (stereo partly shown) [Example 176] | 7.14 | 7.24 |
| C=C(C)[C@@H]1CC[C@]2(C(=O)NCCc3cccc(C(=O)NCc4ccc(C(=O)N[C@@H](C(=O)O)[C@H](C)N5CCN(C)CC5)cc4)c3)CC[C@]3(C)C(CCC4[C@@]5(C)CC[C@H](O)C(C)(C)C5CC[C@]43C)C12 (stereo partly shown) [Example 177] | 8.10 | 7.04 |
| C=C(C)[C@@H]1CC[C@]2(C(=O)NCCc3cccc(C(=O)NCc4ccc(C(=O)N5CC(O)C[C@@H]5C(=O)O)cc4)c3)CC[C@]3(C)C(CCC4[C@@]5(C)CC[C@H](O)C(C)(C)C5CC[C@]43C)C12 (stereo partly shown) [Example 178] | 7.68 | 7.46 |
| C=C(C)[C@@H]1CC[C@]2(C(=O)NCCc3cccc(C(=O)NCc4ccc(N(C)C)cc4)c3)CC[C@]3(C)C(CCC4[C@@]5(C)CC[C@H](O)C(C)(C)C5CC[C@]43C)C12 (stereo partly shown) [Example 179] | 7.14 | 7.01 |
| C=C(C)[C@@H]1CC[C@]2(C(=O)NCCc3cccc(C(=O)NCc4ccc(N)cc4)c3)CC[C@]3(C)C(CCC4[C@@]5(C)CC[C@H](O)C(C)(C)C5CC[C@]43C)C12 (stereo partly shown) [Example 181] | 7.72 | 7.55 |
| C=C(C)[C@@H]1CC[C@]2(C(=O)NCCc3cccc(C(=O)NCc4ccc(C(=O)N5CCN(C(=O)OC(C)(C)C)C(C(=O)OC)C5)cc4)c3)CC[C@]3(C)C(CCC4[C@@]5(C)CC[C@H](O)C(C)(C)C5CC[C@]43C)C12 (stereo partly shown) [Example 183] | 7.36 | 6.97 |
| C=C(C)[C@@H]1CC[C@]2(C(=O)NCCc3cccc(C(=O)NCc4ccc(C(=O)NC(Cc5c[nH]cn5)C(=O)O)cc4)c3)CC[C@]3(C)C(CCC4[C@@]5(C)CC[C@H](O)C(C)(C)C5CC[C@]43C)C12 (stereo partly shown) [Example 184] | 6.98 | 6.08 |
| C=C(C)[C@@H]1CC[C@]2(C(=O)NCCc3cccc(C(=O)NCc4ccc(C(=O)NC(CO)C(=O)O)cc4)c3)CC[C@]3(C)C(CCC4[C@@]5(C)CC[C@H](O)C(C)(C)C5CC[C@]43C)C12 (stereo partly shown) [Example 185] | 7.85 | 7.44 |
| C=C(C)[C@@H]1CC[C@]2(C(=O)NCc3cc(C(=O)NCc4cccc(C(=O)O)c4F)ccc3F)CC[C@]3(C)C(CCC4[C@@]5(C)CC[C@H](O)C(C)(C)C5CC[C@]43C)C12 (stereo partly shown) [Example 186] | 6.92 | 6.08 |
| C=C(C)[C@@H]1CC[C@]2(C(=O)NCCc3cccc(C(=O)NCc4ccc(C(=O)NCc5ncccc5C(=O)OC)cc4)c3)CC[C@]3(C)C(CCC4[C@@]5(C)CC[C@H](O)C(C)(C)C5CC[C@]43C)C12 (stereo partly shown) [Example 187] | 8.10 | 7.40 |
| C=C(C)[C@@H]1CC[C@]2(C(=O)NCCc3cccc(C(=O)NCc4ccc(O)cc4)c3)CC[C@]3(C)C(CCC4[C@@]5(C)CC[C@H](O)C(C)(C)C5CC[C@]43C)C12 (stereo partly shown) [Example 188] | 7.92 | 7.43 |
| C=C(C)[C@@H]1CC[C@]2(C(=O)NCCc3cccc(C(=O)NCc4ccc(C(=O)NCc5cccnc5C(=O)OC)cc4)c3)CC[C@]3(C)C(CCC4[C@@]5(C)CC[C@H](O)C(C)(C)C5CC[C@]43C)C12 (stereo partly shown) [Example 189] | 8.40 | 7.60 |
| C=C(C)[C@@H]1CC[C@]2(C(=O)NCCc3cccc(C(=O)NCc4ccc(NCCCN5CCOCC5)cc4)c3)CC[C@]3(C)C(CCC4[C@@]5(C)CC[C@H](O)C(C)(C)C5CC[C@]43C)C12 (stereo partly shown) [Example 191] | 7.54 | 7.80 |
| C=C(C)[C@@H]1CC[C@]2(C(=O)NCCc3cccc(C(=O)NCc4ccc(C(=O)NCCN5CCNCC5)cc4)c3)CC[C@]3(C)C(CCC4[C@@]5(C)CC[C@H](O)C(C)(C)C5CC[C@]43C)C12 (stereo partly shown) [Example 192] | 8.15 | 8.15 |
| C=C(C)[C@@H]1CC[C@]2(C(=O)NCCc3cccc(C(=O)NCc4ccc(C(=O)NCc5cccnc5C(=O)O)cc4)c3)CC[C@]3(C)C(CCC4[C@@]5(C)CC[C@H](O)C(C)(C)C5CC[C@]43C)C12 (stereo partly shown) [Example 193] | 8.05 | 8.70 |
| C=C(C)[C@@H]1CC[C@]2(C(=O)NCCc3cccc(C(=O)NCc4ccc(C(=O)N5CCNC(C(=O)O)C5)cc4)c3)CC[C@]3(C)C(CCC4[C@@]5(C)CC[C@H](O)C(C)(C)C5CC[C@]43C)C12 (stereo partly shown) [Example 194] | 7.74 | 7.80 |
